According to publication PMC4813125, “Identification of Human UDP-Glucuronosyltransferase 1A4 as the Major Isozyme Responsible for the Glucuronidation of 20(S)-Protopanaxadiol in Human Liver Microsomes” (International Journal of Molecular Sciences, 2016):

Columns and labels:
[1] = tested on: PPD glucuronidation in pooled HLMs; assay: Chemical inhibition of PPD glucuronidation in pooled HLMs; format: in vitro ADME, human; conditions: PPD 50 μM; for inhibition of PPD glucuronidation (in words): inhibitor 5, 50, and 200 μM
Description: Fluconazole, androsterone, estradiol, and hecogenin [25, 34] were used to inhibit their potential inhibitory effects on PPD glucuronidation in pooled HLMs. A set of concentrations (5, 50, and 200 μM) was used for all four inhibitors. The concentration of PPD was set at 50 μM. The reaction time and protein concentration were set at 60 min and 0.5 mg/mL, respectively. All other incubation conditions were the same as those for Glucuronidation of PPD in pooled HLMs described above. The concentration of organic solvent was 1% of the total incubation volume. An experimental group without inhibitors but with solvents was used as the control, in which the activities of PPD glucuronidation were designated as 100%. The activities of PPD glucuronidation in the inhibited samples were compared with the control to evaluate the remaining enzyme activity. For determination of IC50 (representing the concentration that inhibits 50% of the control activity) of hecogenin, experiments with a set of concentrations of hecogenin (1–400 μM) in pooled HLMs were conducted.

[2] = tested on: human recombinant UGT1A1, 1A6, 1A7, 1A8, 1A9, 1A10, 2B4, 2B7, 2B15, and 2B17; assay: PPD glucuronidation with other recombinant human UGT isozymes; format: in vitro ADME; conditions: PPD 10, 50, and 200 μM, 0.25 mg protein/mL
Description: (§1) PPD glucuronidation was measured in reaction mixtures containing human recombinant UGT1A1, 1A3, 1A4, 1A6, 1A7, 1A8, 1A9, 1A10, 2B4, 2B7, 2B15, and 2B17. Three substrate concentrations (10, 50, and 200 μM) were used in this study. The incubation conditions were the same as those for Glucuronidation of PPD in pooled HLMs described above except for the protein concentration (0.25 mg/mL).

[3] = tested on: pooled rat liver microsomes (RLMs); assay: Kinetics of PPD glucuronidation by pooled rat liver microsomes; format: in vitro ADME; conditions: formation of PPDG
Description: (§2) In vitro PPD glucuronidation was in an incubation volume of 100 μL. Incubation conditions were initially optimized for the linear product formation with respect to protein concentration (0.2–1 mg/mL), and incubation time (15–120 min). The stock solution of PPD was prepared in dimethyl sulfoxide (DMSO), and the final concentration of DMSO in the incubations was 1% (v/v). Briefly, the incubation mixture contained HLMs or RLMs (0.5 mg of protein/mL), UDPGA (2 mM), MgCl2 (4 mM), alamethicin (25 μg/mg protein), PPD (10–500 μM), and Tris–HCl buffer (50 mM, pH 7.4). The mixture was incubated for 5 min at 37 °C, and then the reaction was started by the addition of UDPGA and incubated in a shaking water bath for 60 min. The reaction was terminated by addition of 200 μL of ice-cold acetonitrile containing GRg1 (internal standard (IS), 0.5 μg/mL) and then centrifuged at 15,000× g for 10 min at 4 °C. The supernatant was evaporated to dryness under nitrogen gas at room temperature, and the residue was reconstituted with 200 µL of 20% acetonitrile. After centrifugation at 15,000× g for 10 min at 4 °C, 5 μL of the supernatants was subjected to analysis. Incubations without PPD and UDPGA were served as blank and negative controls, respectively.
(§3) Quantitative analysis was conducted on an Agilent 1290 infinity system (Agilent Technologies, Santa Clara, CA, USA) coupled with an MS/MS detector (6410 B Triple Quad LC/MS; Agilent Technologies) in negative ion mode. The chromatographic separations were performed on an ACQUITY UPLC HSS T3 column (100 mm × 2.1 mm i. d. (inner diameter), 1.8 μm) thermostated at 45 °C. The mobile phase consisted of A (5 mM ammonium acetate in water) and B (acetonitrile) at a flow rate of 0.4 mL/min. The gradient elution program was set as follow: 0–2 min 20%–50% B, 2–4 min 50%–60% B, 4–5 min 60% B and finally, reconditioning the column with 20% B for 1 min. Optimized ion source parameters were set as follows: gas temperature 325 °C; gas flow 10 L/min; nebulizer 35 psi; capillary voltage 3500 V; fragmentor voltage 265 V for PPDG and 215 V for IS; cell accelerator voltage 0 V; dwell time 200 ms. Data were acquired in multiple reaction monitor (MRM) mode for the following transitions: m/z 635.4 to m/z 375.1 for PPDG and m/z 799.5 to m/z 637.6 for IS, with the collision energy being set at 50 and 26 V, respectively.
(§4) All results were obtained from three replicates in different microsomal incubations, and all the data were expressed as mean ± SD. To estimate the kinetic parameters, data were transformed and Eadie–Hofstee curves were plotted, which help to identify kinetic models. […] In addition, CLmax was calculated according to the Equation (2). […]

[4] = tested on: pooled human liver microsomes (HLMs); assay: Kinetics of PPD glucuronidation by pooled human liver microsomes; format: in vitro ADME; conditions: formation of PPDG
Description: as §2, §3, §4

human recombinant UGT1A4 [5] = biological target: T1, human recombinant UGT1A4 (Homo sapiens, UniProt P22310); assay: Kinetics of PPD glucuronidation by recombinant UGT1A4; format: in vitro ADME; conditions: formation of PPDG
T1 sequence (P22310 29-534): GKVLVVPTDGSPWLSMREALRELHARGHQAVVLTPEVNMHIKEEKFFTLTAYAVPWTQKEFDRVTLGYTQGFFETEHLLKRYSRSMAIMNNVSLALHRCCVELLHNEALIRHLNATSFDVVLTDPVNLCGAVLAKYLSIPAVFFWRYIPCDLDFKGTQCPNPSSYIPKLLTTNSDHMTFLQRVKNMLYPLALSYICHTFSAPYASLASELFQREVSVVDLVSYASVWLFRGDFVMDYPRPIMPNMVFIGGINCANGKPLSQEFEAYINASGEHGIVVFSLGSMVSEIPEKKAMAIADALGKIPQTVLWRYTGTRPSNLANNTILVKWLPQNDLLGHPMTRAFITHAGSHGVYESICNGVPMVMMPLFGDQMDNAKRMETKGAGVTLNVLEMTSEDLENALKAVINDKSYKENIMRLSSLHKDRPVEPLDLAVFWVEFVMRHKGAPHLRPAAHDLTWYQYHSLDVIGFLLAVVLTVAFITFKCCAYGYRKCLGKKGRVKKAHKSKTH
Description: (§5) A kinetic study for PPD glucuronidation by human recombinant UGT 1A4 was also conducted by incubating PPD with human recombinant UGT 1A4 at protein concentration of 0.25 mg/mL for 1 h. All other incubation conditions were identical to those of glucuronidation of PPD in pooled HLMs.
(§6) All results were obtained from three replicates in different microsomal incubations, and all the data were expressed as mean ± SD. To estimate the kinetic parameters, data were transformed and Eadie–Hofstee curves were plotted, which help to identify kinetic models. Then kinetic parameters were obtained by fitting velocity data to the sigmoidal kinetic (Hill) model (Equation (1)) using Graph Pad Prism 5.0 software (San Diego, CA, USA). In addition, CLmax was calculated according to the Equation (2). (1) V=Vmax × [S]^n/S50n + [S]^n (2) CLmax = Vmax/S50 × n−1/n(n−1)^1/n
(§7) V is reaction velocity, Vmax is the maximum reaction velocity, [S] is the substrate concentration, S50 is the substrate concentration at 0.5 Vmax (analogous to Km in the Michaelis–Menten equation), n is the Hill coefficient (which reflects the degree of sigmoidicity of the velocity versus substrate-concentration relationship), CLmax is the maximum clearance, which provides an estimate of the highest clearance attained.

human recombinant UGT1A3 = biological target: T2, human recombinant UGT1A3 (Homo sapiens, UniProt P35503); assay: PPD glucuronidation with recombinant human UGT1A3; format: in vitro ADME; conditions: UGT1A3 0.25 mg protein/mL
T2 construct: purchased BD Gentest
T2 sequence (P35503 29-534): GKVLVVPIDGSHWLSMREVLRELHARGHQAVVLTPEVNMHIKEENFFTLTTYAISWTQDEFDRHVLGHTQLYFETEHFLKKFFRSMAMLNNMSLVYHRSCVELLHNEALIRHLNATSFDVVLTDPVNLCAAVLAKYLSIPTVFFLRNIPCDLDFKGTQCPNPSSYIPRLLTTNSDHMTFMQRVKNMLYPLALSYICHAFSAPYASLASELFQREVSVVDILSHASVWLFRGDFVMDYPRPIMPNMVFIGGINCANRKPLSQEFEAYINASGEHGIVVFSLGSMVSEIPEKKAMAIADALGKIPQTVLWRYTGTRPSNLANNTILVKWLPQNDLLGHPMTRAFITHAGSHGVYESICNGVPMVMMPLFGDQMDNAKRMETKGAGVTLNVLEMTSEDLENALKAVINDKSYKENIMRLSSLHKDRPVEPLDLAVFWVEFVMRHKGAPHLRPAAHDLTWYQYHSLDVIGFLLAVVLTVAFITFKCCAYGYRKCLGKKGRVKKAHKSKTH
Description: as §1

human recombinant UGT1A4 [6] = biological target: T1, human recombinant UGT1A4; assay: PPD glucuronidation with recombinant human UGT1A4; format: in vitro ADME; set-up: purchased BD Gentest; conditions: UGT1A4 0.25 mg protein/mL
Description: as §1

[7] = set-up: method as in PMID 23494798; conditions: previous studies ref 13; cited from earlier work
[8] = substrate: CC(C)=CCC[C@](C)(O)C1CC[C@]2(C)[C@@H]1[C@H](O)CC1[C@@]3(C)CC[C@H](O)C(C)(C)C3CC[C@]12C; assay: Kinetics of PPD glucuronidation by recombinant UGT1A4; format: in vitro ADME, human; conditions: other: formation of PPDG, recombinant UGT1A4, Hill kinetics, 10–500 μM PPD
Description: as §5, §6, §7

[9] = RLMs, Hill kinetics, 10–500 μM PPD
[10] = HLMs, Hill kinetics, 10–500 μM PPD

## OC(Cn1cncn1)(Cn1cncn1)c1ccc(F)cc1F [Fluconazole, fluconazole]
[1]; pooled HLMs 0.5 mg/mL
  inhibition of PPD glucuronidation (in words): no inhibition

## CC(C)=CCC[C@](C)(O)[C@H]1CC[C@]2(C)[C@@H]1[C@H](O)C[C@@H]1[C@@]3(C)CC[C@H](O)C(C)(C)[C@@H]3CC[C@]12C [PPD, 20(S)-protopanaxadiol]
[2]
  PPD glucuronidation by other UGT isozymes (in words): did not participate in this metabolism
[3]; RLMs 0.5 mg protein/mL, Hill kinetics, 10–500 μM PPD, mean ± SD
  Vmax: 0.30 ± 0.01 nmol/min/mg Protein
[3]; [9]
  S50: 20.68 ± 1.39 µM
  n (Hill coefficient): 2.50 ± 0.48
[3]; RLMs, calculated by Equation (2)
  CLmax: 7.36 ± 0.27 μL/min/mg Protein
[4]; HLMs 0.5 mg protein/mL, Hill kinetics, 10–500 μM PPD, mean ± SD
  Vmax: 0.32 ± 0.01 nmol/min/mg Protein
[4]; [10]
  S50: 42.80 ± 0.73 µM
  n (Hill coefficient): 2.12 ± 0.24
[4]; HLMs, calculated by Equation (2)
  CLmax: 3.70 ± 0.01 μL/min/mg Protein
Human recombinant UGT1A4 [5]; recombinant UGT1A4 0.25 mg/mL, Hill kinetics, 10–500 μM PPD, mean ± SD
  Vmax: 0.31 ± 0.01 nmol/min/mg Protein
Human recombinant UGT1A4 [5]; recombinant UGT1A4, Hill kinetics, 10–500 μM PPD
  n (Hill coefficient): 2.34 ± 0.23
Human recombinant UGT1A4 [5]; recombinant UGT1A4, calculated by Equation (2)
  CLmax: 8.39 ± 0.79 μL/min/mg Protein
Human recombinant UGT1A3; PPD 10 μM
  catalytic activity towards PPD glucuronidation: 0.02 ± 0.004 nmol/min/mg protein
Human recombinant UGT1A3; PPD 50 μM
  catalytic activity towards PPD glucuronidation: 0.04 ± 0.004 nmol/min/mg protein
Human recombinant UGT1A3; PPD 200 μM
  catalytic activity towards PPD glucuronidation: 0.04 ± 0.003 nmol/min/mg protein
Human recombinant UGT1A4 [6]; PPD 10 μM
  catalytic activity towards PPD glucuronidation: 0.06 ± 0.01 nmol/min/mg protein
Human recombinant UGT1A4 [6]; PPD 50 μM
  catalytic activity towards PPD glucuronidation: 0.18 ± 0.01 nmol/min/mg protein
Human recombinant UGT1A4 [6]; PPD 200 μM
  catalytic activity towards PPD glucuronidation: 0.35 ± 0.05 nmol/min/mg protein
[7]
  oral bioavailability: ~30%

## C[C@]12CC[C@@H](O)C[C@@H]1CC[C@@H]1[C@@H]2CC[C@]2(C)C(=O)CC[C@@H]12 [androsterone]
[1]; pooled HLMs 0.5 mg/mL
  inhibition of PPD glucuronidation (in words): weak inhibition

## C[C@]12CC[C@@H]3c4ccc(O)cc4CC[C@H]3[C@@H]1CC[C@@H]2O [estradiol]
[1]; pooled HLMs 0.5 mg/mL
  inhibition of PPD glucuronidation (in words): weak inhibition

## hecogenin
[1]; pooled HLMs, hecogenin 1–400 μM
  IC50: 21.3 ± 4.31 µM
[1]; pooled HLMs 0.5 mg/mL
  inhibition of PPD glucuronidation (in words): concentration-dependent inhibitory effect
[1]; inhibitor at 50 µM, pooled HLMs 0.5 mg/mL
  inhibitory effect on PPD glucuronidation compared with the solvent control: more than 60%

B1: human recombinant UGT 1A4 (Homo sapiens) (protein)
chain: GKVLVVPTDGSPWLSMREALRELHARGHQAVVLTPEVNMHIKEEKFFTLTAYAVPWTQKEFDRVTLGYTQGFFETEHLLKRYSRSMAIMNNVSLALHRCCVELLHNEALIRHLNATSFDVVLTDPVNLCGAVLAKYLSIPAVFFWRYIPCDLDFKGTQCPNPSSYIPKLLTTNSDHMTFLQRVKNMLYPLALSYICHTFSAPYASLASELFQREVSVVDLVSYASVWLFRGDFVMDYPRPIMPNMVFIGGINCANGKPLSQEFEAYINASGEHGIVVFSLGSMVSEIPEKKAMAIADALGKIPQTVLWRYTGTRPSNLANNTILVKWLPQNDLLGHPMTRAFITHAGSHGVYESICNGVPMVMMPLFGDQMDNAKRMETKGAGVTLNVLEMTSEDLENALKAVINDKSYKENIMRLSSLHKDRPVEPLDLAVFWVEFVMRHKGAPHLRPAAHDLTWYQYHSLDVIGFLLAVVLTVAFITFKCCAYGYRKCLGKKGRVKKAHKSKTH
notes: purchased BD Gentest
[8]
  K0.5: 18.49 ± 1.85 µM
  Vmax: 0.00031 µmol/min/mg
